The results in this text go back to BindingDB's records for doi:10.1021/ja050122x (Yale University, 2005).

In the assay the target is Bcl-2-like protein 1 (Homo sapiens, UniProt Q07817). The experiment in a line: Fluorescence Polarization Assay. The conditions noted are these: pH 7.4; 25 °C. As for the experimental part: Fluorescence polarization experiments were conducted on a Photon Technology International instrument using a 0.3 cm path length cuvette. Spectra were measured at 25 deg C using 10.0 nm slit widths. Excitation at 495 nm was used for the fluorescein-containing peptide Fl-Bak and the emission maximum at 535 nm was monitored. Polarization measurements were recorded upon titration of inhibitors at varying concentrations into a solution of Fl-Bak and Bcl-xL. Regression analysis was carried out using SigmaPlot 2001 (Systat Co.) ligand binding macro module. Experimental data were fitted to determine the IC50 values, which can be related to the known affinity of the 16-mer Bak peptide (Kd =120 nM) to acquire the inhibitory constant Ki.
Bcl-2-like protein 1, sequence (Q07817 whole entry): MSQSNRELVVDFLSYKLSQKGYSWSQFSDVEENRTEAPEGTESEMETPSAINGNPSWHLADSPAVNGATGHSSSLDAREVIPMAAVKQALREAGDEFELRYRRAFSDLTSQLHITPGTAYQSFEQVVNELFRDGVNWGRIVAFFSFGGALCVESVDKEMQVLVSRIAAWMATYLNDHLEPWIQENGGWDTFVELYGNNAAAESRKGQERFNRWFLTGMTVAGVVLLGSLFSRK
Regarding `CC(C)Cc1cc(OCC(=O)O)ccc1-c1ccc(-c2cccc(C(C)C)c2)c(CC(C)C)c1` [terphenyl scaffold, 27], the affinity corresponds to a Ki of 4.82 µM. This lies in the single-digit micromolar range.

Compound `Cc1cc(CCC(=O)O)ccc1-c1cc(C)c(-c2ccc(OCC(=O)O)c(Cc3ccccc3)c2)c(C)c1` [terphenyl scaffold, 20] showed a Ki of 2.34 µM.

`CCc1cc(-c2ccc(OCC(=O)O)cc2C(C)C)ccc1-c1cccc(Cc2cccc3ccccc23)c1` gave a Ki of 6.88 µM. This Ki lies about 2.9-fold higher than the previous one.

Compound `Cc1cccc(-c2ccc(-c3ccc(OCC(=O)O)cc3C)cc2C)c1` [terphenyl scaffold, 25] had a Ki of 18.2 µM. This Ki is about 2.6-fold higher than that of the compound before.

Regarding `CC(C)Cc1cc(-c2ccc(-c3ccc(CCC(=O)O)cc3CC(C)C)cc2C(C)C)ccc1OCC(=O)O` [terphenyl scaffold, 15], affinity was put at a Ki of 2.09 µM. This Ki is about 8.7-fold lower than that of the compound before.

`CC(C)Cc1cc(-c2ccc(-c3ccc(CCCN)cc3CC(C)C)cc2C(C)C)ccc1OCCN` [terphenyl scaffold, 24] came in with a Ki of 13.6 µM.

The compound `CC(C)Cc1cc(-c2ccc(-c3ccc(CCC(=O)O)cc3CC(C)C)cc2Cc2ccc3ccccc3c2)ccc1OCC(=O)O` [terphenyl scaffold, 17] had a Ki of 2.5 µM.

Compound `O=C(O)COc1ccc(-c2ccc(-c3ccccc3)cc2)cc1` [terphenyl scaffold, 30] showed a Ki above 30 µM.

Compound `CCc1cc(-c2ccc(OCC(=O)O)cc2C(C)C)ccc1-c1cccc(Cc2ccccc2)c1` [terphenyl scaffold, 28] showed a Ki of 3.27 µM.

`CC(C)Cc1cc(CCC(=O)O)ccc1-c1ccc(-c2ccc(OCC(=O)O)c(Cc3cccc4ccccc34)c2)c(CC(C)C)c1` [terphenyl scaffold, 19]: the affinity corresponds to a Ki of 2.7 µM.

On to `CC(C)Cc1cc(-c2ccc(-c3ccc(CCC(=O)O)cc3CC(C)C)cc2Cc2cccc3ccccc23)ccc1OCC(=O)O` [terphenyl scaffold, 14], for which the affinity corresponds to a Ki of 0.114 µM. This Ki is about 24-fold lower than that of the compound before.

Turning to `CC(C)Cc1cc(CCC(=O)O)ccc1-c1ccc(-c2ccc(OCC(=O)O)c(Cc3ccccc3)c2)c(Cc2ccccc2)c1` [terphenyl scaffold, 18], the Ki is 2.73 µM.

In turn, `CC(C)Cc1cc(-c2ccc(-c3ccc(CCC(=O)O)cc3CC(C)C)cc2Cc2ccccc2)ccc1OCC(=O)O` [terphenyl scaffold, 16] registered a Ki of 1.82 µM.

With `Cc1cc(OCC(=O)O)ccc1-c1ccc(-c2cccc(C(C)C)c2)c(C)c1` [terphenyl scaffold, 26], affinity was put at a Ki of 10.4 µM.

For the compound `Cc1cc(CCC(=O)O)ccc1-c1cc(C)c(-c2ccc(OCC(=O)O)c(Cc3ccccc3)c2)c(CCC(=O)O)c1` [terphenyl scaffold, 21], the inhibitory constant (Ki) is above 30 µM.

`COC(=O)CCc1ccc(-c2ccc(-c3ccc(OCC(=O)OC)cc3)cc2)cc1` [terphenyl scaffold, 22] yielded an inhibition constant Ki above 30 µM.
